Structures can show the parent of a compound that is named as a salt.
Key:
[1] = Solubility in aqueous buffer; type: physicochemical
[2] = biological target: Sa-SrtA (Staphylococcus aureus, UniProt Q2FV99); details: read-out: Sa-SrtA IC50; values taken from reference; cited from earlier work
[3] = biological target: SrtA (Staphylococcus aureus, UniProt Q2FV99); details: read-out: SrtA IC50; cited from earlier work
[4] = system: S. aureus infections; details: dosed at 20 (DMMA) and 40 (triazolothiadiazole) mg of compound per kg of animal; cited from earlier work

SrtA, sequence (Q2FV99 60-206): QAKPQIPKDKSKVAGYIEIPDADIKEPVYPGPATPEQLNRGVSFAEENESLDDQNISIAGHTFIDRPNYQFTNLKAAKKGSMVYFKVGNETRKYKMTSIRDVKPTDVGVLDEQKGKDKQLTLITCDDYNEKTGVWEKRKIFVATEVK
Sa-SrtA, sequence (Q2FV99 60-206): as above

SMILES	solubility ([1]; aqueous buffer)	solubility in aqueous solvent ([1]; aqueous solvent)	IC50 [2] [µM]	IC50 [3] [µM]	efficacy in treating potentially lethal S. aureus infections in animal models [4]
CCOc1c(S)cnn(-c2ccccc2)c1=O [2-salt, 5-ethoxy-6-oxo-1-phenyl-1,6-dihydropyridazine-4-thiolate]	up to 75 mM	–	–	–	–
CCOc1c(S)cnn(-c2ccccc2)c1=O [2-10]	–	poorly soluble	13 ± 1	–	–
O=S(=O)([O-])c1ccccc1-c1nn2c(-c3ccncc3)nnc2s1.[Na+] [triazolothiadiazol, 3-(4-pyridinyl)-6-(2-sodiumsulfonatephenyl)[1,2,4]triazolo[3,4-b][1,3,4]thiadiazole]	–	–	–	9.3	efficacious
COc1ccc(/C(C#N)=C/c2cc(OC)ccc2OC)cc1 [DMMA, (Z)-3-(2,5-dimethoxyphenyl)-2-(4-methoxyphenyl) acrylonitrile]	–	–	–	9.2	efficacious
